# From patent publication US20230270805A1, “A COMPOSITION COMPRISING AN EXTRACT OF ALDER TREE OR THE ISOLATED COMPOUNDS THEREFROM FOR TREATING AND PREVENTING SKELETON MUSCLE-RELATED DISORDER AND THE USE THEREOF” (Sookmyung Women's University Indusutry-Academic Cooperation …, priority 2020, published 2023)
# Columns and labels:
# C57/BL6 mice [1] = assay: Treadmill test in dexamethasone animal model of muscle loss; format: in vivo, mouse; conditions: dexamethasone 1 mg/kg s.c. alone
# Description: (§1) Dexamethasone, a synthetic glucocorticoid, was injected subcutaneously into C57/BL6 mouse mice to establish an animal model of muscle loss and following experiment was performed.
# (§2) To establish an in vivo model of muscle loss, 6 weeks-old male C57/BL6 mice (Raon Bio, 6 weeks old, weight range: 32-36 g) were acclimated for one-week, and then weighed animals determined to be healthy during the acclimatization period. The mice close to the average weight were selected using a simple random sampling method and were classified into five groups, namely, (a) a control group, (b) a muscle loss control group (treated with dexamethasone 1 mg/kg), (c) test sample group treated with inventive extract 250 mg/kg and dexamethasone, (d) test sample group treated with inventive extract 500 mg/kg and dexamethasone, and (e) positive control treated with oxymetholone (Celltrion Co. Ltd, ATC #A14AA05, 10 mg/kg) and dexamethasone.
# (§3) The inventive Extract and oxymetholone were administered once to the mice daily for 4 weeks and dexamethasone was injected subcutaneously for 10 days from 10 days before the end of co-treatment of inventive extract and oxymetholone.
# (§4) Both of inventive extract and oxymetholone were forcibly administered orally using zonde for oral administration after holding and fixing the skin of the animal's poll area, and dexamethasone was injected slowly subcutaneously after inserting a syringe into the dorsal skin fold of the animal held on the thumb and index finger, slightly aspirating whether it was injected normally, and confirming that no blood came out.
# The determination was performed on the 14th and 28th days after the administration of test sample.
# [2] = Body weight in dexamethasone animal model of muscle loss; format: in vivo, mouse; conditions: dexamethasone 1 mg/kg s.c. alone
# Description: as §1, §2, §3, §4
# The body weight of every animal was measured once a week for 4 weeks from the day of inventive extract administration.
# MAFbx = assay: Western blot of MAFbx in dexamethasone-treated myotube cells (in vitro model of muscle loss); format: cell-based, mouse; conditions: myotube cells treated with dexamethasone alone; untreated cells = 1
# Description: (§5) In order to confirm the inhibitory effect of the inventive extract obtained in Example, dexamethasone was treated to myotube cell to establish in vitro model of muscle loss and following experiment was performed according to the procedure disclosed in the previous literature (Int. J. Mol. Med. 2015, 36:29).
# In particular, following experiment was performed according to the procedure disclosed in the previous literature to find out whether inventive extract takes an effect on MAFbx expression during muscle protein degradation by dexamethasone treatment since the activity of MAFbx, a muscle proteolytic enzyme, is known to induce muscle protein loss (Biomed. Pharmacother. 2017, 95:1486)
# For Western blot analysis, about 3×10^4 mouse myoblast cell cells (C2C12; CRL-1772 ATCC) were incubated in 60 mm plates for 24 hours, and various concentrations of each inventive extract (0, 1, 10, 100 ng/mL) was added to the differentiation medium for 3 days to differentiate. The protein extract was obtained from the differentiated cells using by lysis buffer [25 mM Tris-HCl (pH 7.5), 100 mM NaCl, 1% NP-40, 1% sodium deoxycholate, 0.1% sodium dodecyl sulfate (SDS), and protease inhibitor cocktail, Calbiochem, Darmstadt, Germany). The protein extract (25 μg) was performed to SDS-polyacrylamide gel electorphoresis (PAGE) and transferred to polyvinylidene fluoride (PVDF) membranes. […]
# C57/BL6 mice [3] = assay: Weight of muscle mass, epididymal fat and liver in dexamethasone animal model of muscle loss; format: in vivo, mouse; conditions: dexamethasone 1 mg/kg s.c. alone, autopsy at 4 weeks
# Description: as §1, §2, §3, §4
# The mice were anesthetized with anesthetic to prevent the movement of experimental animals and sacrificed to minimize pain to dissect them. All instruments used during the experiment were sterilized and disinfected and their liver and epididymis fat were harvested.
# The gastrocnemius muscle and soleus muscle of the mice were separated, washed in saline, drained, and weighed.
# After autopsy at 4 weeks after administration, the weight of liver and Epididymis fat was weighed to calculate weight-to-weight to compare the relative differences between the organ's weight in the groups.
# C57/BL6 mice [4] = assay: Grip strength test in dexamethasone animal model of muscle loss; format: in vivo, mouse; conditions: dexamethasone 1 mg/kg s.c. alone
# Description: as §1, §2, §3, §4
# The grip strength of mice was determined as follows; after grabbing the animal's tail and placing it on the grid, the front foot and body were pulled at the same speed until the front foot and body were held at the grid with the front paw, and the average value was calculated after three experimental repetitions. The determination was performed on the 14th and 28th days after the administration of test sample.
# MHC = assay: Western blot of MHC in dexamethasone-treated myotube cells (in vitro model of muscle loss); format: cell-based, mouse; conditions: myotube cells treated with dexamethasone alone; untreated cells = 1
# Description: as §5
# For Western blot analysis, about 3×10^4 mouse myoblast cell cells (C2C12; CRL-1772 ATCC) were incubated in 60 mm plates for 24 hours, and various concentrations of each inventive extract (0, 1, 10, 100 ng/mL) was added to the differentiation medium for 3 days to differentiate. The protein extract was obtained from the differentiated cells using by lysis buffer [25 mM Tris-HCl (pH 7.5), 100 mM NaCl, 1% NP-40, 1% sodium deoxycholate, 0.1% sodium dodecyl sulfate (SDS), and protease inhibitor cocktail, Calbiochem, Darmstadt, Germany). The protein extract (25 μg) was performed to SDS-polyacrylamide gel electorphoresis (PAGE) and transferred to polyvinylidene fluoride (PVDF) membranes.
# Primary mouse anti-MHC (sc-376157, Santa Cruz) or primary mouse anti-MAFbx (sc-166806, Santa Cruz) was conjugated to the blots at 4° C., for 12 hrs and then conjugated with anti-mouse secondary antibody conjugated to Horseradish peroxidase (goat anti-mouse IgG-HRP, sc-2005, Santa Cruz) to analyze the amount of MHC and MAFbx protein by chemiluminescence method. […]
smiles,measurement,setting,value
"C[C@@H]1C[C@H]2[C@@H]3CCC4=CC(=O)C=C[C@]4(C)[C@@]3(F)[C@@H](O)C[C@]2(C)[C@@]1(O)C(=O)CO [Dexa, dexamethasone]",motility (treadmill),C57/BL6 mice [1]; 2 weeks,798.85 ± 14.33 meter
same,motility (treadmill),C57/BL6 mice [1]; 4 weeks,745.73 ± 30.01 meter
same,body weight,[2]; 0 week,22.33 ± 1.11 gram
same,body weight,[2]; 1 week,22.84 ± 1.54 gram
same,body weight,[2]; 2 weeks,23.46 ± 1.60 gram
same,body weight,[2]; 3 weeks,23.57 ± 1.81 gram
same,body weight,[2]; 4 weeks,23.57 ± 1.76^ab gram
same,MAFbx expression,MAFbx,1.9 fold
same,"absolute weight, epididymal fat",C57/BL6 mice [3],0.51 ± 0.10 gram
same,"absolute weight, calf muscle",C57/BL6 mice [3]; gastrocnemius,0.242 ± 0.014 gram
same,"absolute weight, fluke muscle",C57/BL6 mice [3]; soleus,0.014 ± 0.002^c gram
same,grip strength,C57/BL6 mice [4]; 2 weeks,1.05 ± 0.08 N
same,grip strength,C57/BL6 mice [4]; 4 weeks,0.94 ± 0.12^b N
same,MHC expression,MHC,0.7 fold
